The source of these data is a melting point compilation (Tetko et al.; mined from patent text by program, amines drawn as free bases though some values may be those of a salt).

`COC(=O)c1cc(C(=O)N2CCSCC2)c2cc(Cc3ccc(F)cc3)cnc2c1O` gave a melting point of 184 to 185 °C.
The value for `O=C(Nc1cccc(C(=NO)c2ccccc2)c1)c1ccn2c1CSC2c1cccnc1` (single isomer, unassigned; (+)) was 130 °C; that for `COC(=O)COc1cccc2c1CCC(Br)C2=O` (stereo unspecified) was 76 to 77 °C; that for `CCOC(=O)c1nc2c(=O)[nH]c3cc(C(F)(F)F)ccc3n2c1P(=O)(OCC)OCC` was 198 to 199 °C.
The value for `Cc1cccc(COc2cccc(OCc3ccc4cc(F)cc(F)c4n3)c2)c1OCC(=O)O` was 137 to 141 °C.
The same measure for `COc1ccc2cc(-c3ccc(OCC(O)CNC(C)(C)C)cc3)n(C)c(=O)c2c1` (stereo unspecified): 130 to 131 °C; for `Brc1cccc2nc3[nH]c4ccccc4nc-3c12`: more than 300 °C; for `FC(F)(F)c1ccc(-c2[nH]c(=S)[nH]c2-c2ccc(C(F)(F)F)cc2)cc1`: 312 to 315 °C.
`CCCCN1C(=O)c2cncnc2N(C(=O)CN2CCN(C)CC2)c2ccccc21` showed a melting point of 153 to 154 °C.
On to `O=CNCc1c(Cl)ccc2cc(Cl)cnc12`, for which the melting point was found to be 110 °C.
`CC(C)C(S)C(=O)NC1(C(=O)NC(Cc2ccc(-c3ccccc3)cc2)C(=O)O)CCOCC1` (stereo unspecified) showed a melting point of 161 to 163 °C.
For `CN(C)[C@@H]1Cc2cccc(O)c2C[C@H]1O` (relative stereo), the melting point lay within 168 to 170 °C.
As for `O=C(Nc1ccccc1)C(CS)Cc1ccccc1` (stereo unspecified), the melting point was determined as 70 °C.
The same measure for `COc1cc(CCl)ccc1OCc1nc(-c2cccc([N+](=O)[O-])c2)oc1C`: 166 to 168 °C.
Turning to `O=C1NCSc2ccsc21`, the melting point fell in the range of 136 to 138 °C.
Molecule `COc1cc2c(cc1Nc1ncc(F)c(Nc3ccc(N4CCOCC4)cc3OC)n1)CCN(CC(=O)OC(C)C)CC2` showed a melting point of 94 to 110 °C.
Molecule `O=c1oc(-c2ccccc2)cc(O)c1SCc1ccc2c(c1)OCO2` yielded a melting point of 162 to 164 °C.
In turn, `CCc1cc(O)c(C(C)=O)c(OC2OC(COC(C)=O)C(OC(C)=O)C(OC(C)=O)C2OC(C)=O)c1` (stereo unspecified) had a melting point of 125 to 127 °C.
The same measure for `CCN(C(=O)NC)c1nnc(C(C)(C)C)s1`: 112 °C.
The value for `Cc1ccc2c(c1)C(NC(=O)CCCN1CCN(c3ccc(F)cc3)CC1)c1ccccc1CS2(=O)=O` (stereo unspecified) was 163 to 165 °C; that for `CC(NC(=O)C1=C(C(=O)Nc2cc(OC3CCCC3)c(Cl)cc2F)CCCC1)c1cccc2ccccc12` (stereo unspecified) was 198 to 201 °C; that for `NC(=O)CN1C(=O)C[C@@H]2CCCCC[C@@H]21` (relative stereo) was 140 to 142 °C.
The same measure for `COc1ccc(-c2c(Cl)c(CN3C(=O)CCC3=O)nc3sc4c(c23)CCC(O)C4)cc1` (stereo unspecified): 218 to 220 °C.
`O=C1CC2CC(n3c(=O)[nH]c4ccccc43)CC2C1` (stereo unspecified) showed a melting point of 246 to 248 °C.
The value for `CC(C)(C)C(O)(COc1ccccc1)c1cncnc1` (stereo unspecified) was 127 to 129 °C; that for `COc1ccc(N2CCN(c3c(C)c(C)c4c(c3C)C(OCc3ccc(C)cc3)C(C)(C)O4)CC2)cc1` (stereo unspecified) was 84 to 85 °C; that for `CC(C)(C)OC(=O)NCc1ccc(CNC(=O)N2CCN(C(=O)OCc3ccccc3)CC2)cc1` was 128 °C.
Molecule `CCCn1c(=O)[nH]c(Cl)c(-c2ccccc2)c1=O` came in with a melting point of 230 to 231 °C.
In the case of `COc1ccc(Cl)cc1C(=O)NCc1ccc(-c2ccc(OC(C)(C)C(=O)O)cc2)cc1`, the melting point turned out to be 104 °C.
In turn, `Fc1cccc(Nc2nc(Cl)nc3nc[nH]c23)c1` showed a melting point of more than 250 °C.
The value for `O=C(O)C1=CCC2CC(=O)C12` (stereo unspecified) was 52 to 56 °C; that for `O=C(O)C1=Cc2cc(Cl)c(Oc3ccc(OC(F)(F)F)cc3)cc2OC1C(F)(F)F` (stereo unspecified) was 198 to 199 °C; that for `CCCCNS(=O)(=O)CC(O)C(O)C(CC1CCCCC1)NC(=O)CC(CC)c1c[nH]cn1` (stereo unspecified) was 60 to 90 °C.
`Nc1nc(Cl)cc(Oc2ccc3c(c2)CCCCN3C(=O)Nc2cccc(C(F)(F)F)c2)n1`: the melting point stood at 175 °C.
The value for `NC(=O)N1CCC(c2nn(-c3ccccc3)c3cc(F)ccc23)CC1` was 149 to 151 °C.
The value for `CC(C)=NOCc1nc2c(N)nc3cccnc3c2n1CCCNC(=O)C(C)C` was 195 to 197 °C; that for `CS(=O)(=O)c1ccc(-n2nc(CNC(=O)Nc3ccccc3)cc2-c2ccccc2)cc1` was 95.7 to 104 °C; that for `C=CCN(c1ccccc1)c1cc2c(cc1N(CC=C)c1ccccc1)C(=O)NC2=O` was 122 to 127 °C.
Consider `CCc1nc2c(C)cc(C)nc2n1Cc1ccc(-c2ccccc2C(=O)NN)cc1`, for which the melting point lay within 139 to 142 °C.
With `Cc1ccc(S(=O)(=O)Nc2ccc(-c3ccc(S(=O)(=O)n4ccc(C=CC(=O)NO)c4)cc3)cc2)cc1`, the melting point lay within 119 to 126 °C.
The value for `CSc1nsc(NC(=O)C(C)(C)C)c1C#N` was 177 to 178 °C; that for `COC(=O)C=C(C)c1ccc(CCNCC(O)c2ccccc2)cc1` (stereo unspecified) was 120 to 125 °C; that for `COc1ccc(-c2cc3c(OC)c(Br)c(OC)cc3o2)cc1` was 107 to 109 °C.
Molecule `CC1(C)CCC(C)(C)c2cc(Cn3cccn3)c(/C=C/c3ccc(C(=O)O)cc3)cc21` came in with a melting point of 246 to 248 °C.
In the case of `NC1CN(C(=O)Nc2ccc(C(F)(F)F)cc2)N=C1c1ccc(Cl)cc1` (stereo unspecified), the melting point lay within 144 to 146 °C.
In the case of `CN(C)CCCN1C(=O)c2cc(Cl)c(S(N)(=O)=O)cc2C1=O`, the melting point was in the range of 192 to 194 °C.
The same measure for `COc1ccc(CC(C(=O)O)N(CCCNC(=O)OC(C)(C)C)C(=O)CBr)cc1` (stereo unspecified): 79 to 81 °C.
The same measure for `C1=NC2=C(CCC1)CSC2`: 55 to 57 °C.
`NS(=O)(=O)c1ccc(-c2ccco2)cc1` gave a melting point of 202 to 203 °C.
On to `CC(C)CCCC(C)C1CCC2C3CC=C4CC(OC(=O)OCC(N)C(=O)O)CCC4(C)C3CCC12C` (stereo unspecified), for which the melting point worked out at 147 °C.
`COc1ccc(C(=O)Cc2c(Cl)cncc2Cl)c2c1OCCCCO2`: the melting point lay in the range of 142 to 143 °C.
Turning to `CNN(NC)C(=O)Nc1cccc2c1C(=O)c1c-2n[nH]c1-c1ccsc1`, the melting point stood at 202 °C.
For `Cc1ccc(-c2ccc(S(C)(=O)=O)cc2)n1CC(C)(C)S`, the melting point was 124 to 126 °C.
The value for `COCCCN1C(=O)COc2ccc(Br)cc21` was 193 to 195 °C; that for `COC(=O)C1(NC(=O)Cc2cc(-c3ccc(Cl)cc3)ccc2Cl)CCCCC1` was 124 °C.
The same measure for `Cc1c(-c2ccc(O)cc2)n(Cc2ccc(OCCN3CC4(C)CC3CC(C)(C)C4)cc2)c2ccc(O)cc12` (stereo unspecified): 98 to 100 °C; for `COc1ccc(C(=O)Nc2c(Cl)cncc2Cl)c2c1oc1ccncc12`: more than 260 °C.
`c1ccc(-c2cc3ncnc(Nc4ccc5c(ccn5CCN5CCOCC5)c4)c3s2)cc1` displayed a melting point of 225 to 226 °C.
The molecule `CCCCCCC(C)(C)c1cc(O)c(C2=C(CO)CCC(C)C2)c(O)c1` (stereo unspecified) yielded a melting point of 155 to 156 °C.
The value for `CCOP(=O)(OCC)C(C)Oc1cc(-n2c(=O)cc(C(F)(F)F)n(C)c2=O)c(F)cc1Cl` (stereo unspecified) was 103 °C; that for `O=C1Nc2ccccc2Oc2c1[nH]c1ccccc21` was 233 to 234 °C; that for `Cc1noc(-c2cnc(NC(=O)[C@H](CC3CCCC3)c3ccc(S(C)(=O)=O)c(Cl)c3)cn2)n1` was 101 to 105 °C.
Turning to `CC(=O)NC[C@H]1CN(c2ccc(C3CCN(C(=O)OC(C)(C)C)CC3)c(F)c2)C(=O)O1`, the melting point fell in the range of 144 to 146 °C.
`CCc1c(-c2ccc(O)cc2)c2c(COCCCCCCN3CCCCC3)cc3c(O)ccc1n32` displayed a melting point of 129 to 131 °C.
The value for `O=c1oc2ccccc2n1-c1ccccc1[N+](=O)[O-]` was 153 to 155 °C; that for `CCOC(=O)c1nn(C)c(OC(F)F)c1CO` was 90 to 91 °C.
The value for `CCCc1nc2c(N)nc3ccccc3c2n1Cc1cc(-c2ccc(F)cc2)no1` was 226 to 227 °C; that for `O=C(C=Cc1ccc(-c2ccc3ncnc(Nc4ccc(OCc5cccc(F)c5)c(Cl)c4)c3c2)o1)NOC1CCCCO1` (stereo unspecified) was 233 °C.
Molecule `O=C(Nc1ccc2cc(CN3CCCC3)ccc2c1)c1ccc(-c2ccc(Cl)cc2)nc1` had a melting point of 270 to 274 °C.
In the case of `CC1=C(C(=O)O)C(c2ccccc2[N+](=O)[O-])C(C(=O)O)=C(C)N1`, the melting point is 120 to 122 °C.
The value for `CCOC(=O)c1cnncc1NC(=O)Cc1c(F)cc(F)cc1F` was 143 to 144 °C.
The same measure for `CCc1c(C)c(=O)n(-c2cc(OC(C)C)c(Cl)cc2F)c(=O)n1C`: 88 to 91 °C.
In turn, `COc1c(C)c(C)c(OC)c(CCCOc2ccc(CC3SC(=O)NC3=O)cc2)c1C` (stereo unspecified) returned a melting point of 111 to 113 °C.
For the molecule `CCn1c(=O)c(=O)[nH]c2cc(-n3cccc3)c([N+](=O)[O-])cc21`, the melting point was in the range of 248 to 250 °C.
The same measure for `Cc1ccc(C(=O)n2c(C)c(CC(=O)O)c3cc4c(cc32)OCCO4)cc1`: 162 to 163 °C.
The same measure for `S=C(NCn1nnc2ccccc21)NCn1nnc2ccccc21`: 205 to 206 °C.
`O=C(CCc1nc(-c2ccc(Cl)cc2)co1)OC(c1ccccc1)c1ccccc1`: the melting point fell in the range of 94 to 95 °C.
Consider `CC(=O)N1CCN(c2ccc(Nc3nccc(-c4sc(NCCc5ccccc5)nc4C)n3)cc2)CC1`, for which the melting point is 212 to 213 °C.
In turn, `C=C(C)C[C@@H]1C(=O)N(c2ccc(C#N)c(Cl)c2)[C@@H](C)[C@H]1O` gave a melting point of 110 to 112 °C.
The same measure for `O=C(O)CCCCCCCn1ncc(-c2ccccc2)c1-c1ccccc1`: 94 to 95 °C; for `C=CCSC1=C(O)CC(C)(C)CC1=O`: 67.5 to 69.5 °C; for `CCC(C)COc1ccc(-c2ccc(O)cc2)cc1C#N` (stereo unspecified): 181 °C.
The molecule `Cc1cc(=O)c(C(=O)O)c(C)o1` registered a melting point of 98 °C.
With `CCOC(=O)/C=C(C)/C=C/C=C(C)/C=C/c1c(C)cc(OC(F)(F)F)c(C)c1C`, the melting point fell in the range of 47 to 49 °C.
Regarding `COC(=O)/C=C(/OC)c1cccc2ccc(Br)cc12`, the melting point lay within 96 to 97 °C.
The value for `COc1ccccc1C(=NO)c1sccc1Br` was 129 to 130 °C.
